Read-outs that look alike come from different tables or passages of the source.
Experiments:
[1] = target: T1, HCV NS3/4A protease complex (BMS strain) (Hepatitis C virus genotype 1a, UniProt P27958, C1454S); experiment: Recombinant HCV NS3/4A protease complex FRET peptide assay, BMS strain; format: biochemical, HCV genotype 1a
T1 construct: HCV NS3/4A protease complex (amino acids 1027 to 1711); inferred from pET21b vector and Ni-NTA purification; made in house; host or cells: Escherichia coli BL21 (DE3), pET21b
T1 sequence (P27958 1027-1657 C1454S): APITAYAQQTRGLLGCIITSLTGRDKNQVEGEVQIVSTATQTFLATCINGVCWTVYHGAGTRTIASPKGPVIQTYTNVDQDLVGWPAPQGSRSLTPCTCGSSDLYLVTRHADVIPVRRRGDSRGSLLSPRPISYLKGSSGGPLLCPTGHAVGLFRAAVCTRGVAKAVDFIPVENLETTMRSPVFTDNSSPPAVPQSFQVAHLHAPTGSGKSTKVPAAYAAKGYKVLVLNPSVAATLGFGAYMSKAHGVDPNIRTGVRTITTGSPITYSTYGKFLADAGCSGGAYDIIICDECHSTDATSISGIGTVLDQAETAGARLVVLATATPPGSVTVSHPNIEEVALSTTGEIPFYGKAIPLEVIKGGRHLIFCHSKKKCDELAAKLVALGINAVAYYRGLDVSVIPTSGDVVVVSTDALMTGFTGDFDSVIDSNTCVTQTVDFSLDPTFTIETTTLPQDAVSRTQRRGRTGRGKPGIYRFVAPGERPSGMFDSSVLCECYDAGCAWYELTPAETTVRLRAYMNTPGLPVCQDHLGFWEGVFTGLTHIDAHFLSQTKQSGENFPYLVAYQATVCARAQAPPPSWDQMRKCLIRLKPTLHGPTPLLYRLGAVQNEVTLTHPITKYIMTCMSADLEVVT
T1 sequence (P27958 1658-1711 partner, looked up, stated change not applied): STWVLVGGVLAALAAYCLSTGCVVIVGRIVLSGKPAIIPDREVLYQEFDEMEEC
In short: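 Recombinant NS3/4A (aa 1027–1711) carried a three-lysine tail, C1711G and C1454S, was expressed in E. coli BL21(DE3) and purified by Ni-NTA and Superdex-S200 to >90% purity. Inhibition of protease cleavage of a FRET peptide was measured in vitro.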

[2] = system: HCV replicon in Huh7 cells; experiment: HCV replicon cell-based assay (FRET); set-up: species or system HCV strain 1B; details: Hepatitis C virus
In short: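 Huh7 cells carrying a genotype 1b subgenomic HCV replicon (NS3–NS5B, neo) exposed to compound for 4 days at 37 °C, 0.5% DMSO final. After lysis with reagent containing 10 μM FRET peptide substrate, NS3 protease activity read kinetically at 340/490 nm; EC50 derived.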

How did the IC50 ([1]; BMS strain, read-out: IC50 against the NS3/4A BMS strain in the enzyme assay) turn out when `C=CC1C[C@]1(NC(=O)[C@@H]1C[C@@H](Oc2cc(-c3ccccc3)nc3cc(OC)ccc23)CN1C(=O)[C@@H](NC(=O)OC(C)(C)C)C(C)(C)C)C(=O)NS(=O)(=O)c1cccs1` (stereo in doubt) [Compound 1, (1-{4-(7-Methoxy-2-phenylquinolin-4-yloxy)-2-[1-(thiophene-2-sulfonylaminocarbonyl)-2-vinyl-cyclopropylcarbamoyl]-pyrrolidine-1-carbonyl}-2,2-dimethylpropyl)carbamic acid tert-butyl ester] was run?
Its IC50 is 8 nM.

What about the IC50 ([1]; NS3/4A BMS Strain, activity range, read-out: IC50 a, b, c (Activity Table)) of the same molecule?
Its IC50 is less than 100 nM.

And the EC50 ([2]; Huh-7, 96 h, Huh7 cells, 4 days, read-out: EC50 value in the replicon assay)?
Its EC50 is 55 nM.

And the EC50 ([2]; Huh-7, replicon, activity range, read-out: EC50 a, b, c (Activity Table))?
The EC50 was less than 100 nM.
